Results taken from patent publication US5047402A, “Cyclic amides as medicaments” (ICI Americas Inc., priority 1989, dated 1991).
pKi: −log10 of the molar value.

Target: T1, LTD4 /E4 receptors (Cavia porcellus, UniProt Q2NNR5)
T1 construct: membrane fractions, containing the LTD4 /E4 receptors, are prepared from guinea-pig lung parenchyma; from tissue; host or cells: guinea-pig lung parenchyma membrane fractions
T1 sequence (Q2NNR5 1-340): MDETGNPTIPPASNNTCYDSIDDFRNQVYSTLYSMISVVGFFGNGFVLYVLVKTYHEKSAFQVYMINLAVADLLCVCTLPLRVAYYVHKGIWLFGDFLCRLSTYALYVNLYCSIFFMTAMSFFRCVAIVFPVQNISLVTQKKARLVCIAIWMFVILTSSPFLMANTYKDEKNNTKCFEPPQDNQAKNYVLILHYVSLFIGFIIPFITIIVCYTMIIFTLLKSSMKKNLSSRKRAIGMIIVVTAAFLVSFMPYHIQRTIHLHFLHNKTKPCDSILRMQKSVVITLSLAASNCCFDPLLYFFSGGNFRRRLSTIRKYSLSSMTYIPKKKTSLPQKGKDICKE
Assay: receptor-ligand binding assay with 3H-LTD4 on guinea-pig lung parenchyma membrane fractions
Settings: 1nM 3H-LTD4, 30 minutes at 22° C., Ki calculated from IC50 by the Cheng-Prusoff equation
Procedure: According to this procedure, membrane fractions, containing the LTD4 /E4 receptors, are prepared from guinea-pig lung parenchyma and incubated for 30 minutes at 22° C. with 1nM ^3 H-LTD4 in the absence or presence of tested antagonist. Specific binding, determined under conditions that prevent enzymatic metabolism of ^3 H-LTD4, is the net result of total ^3 H-LTD4 binding minus nonspecific binding determined in the presence of 1-2000 fold excess unlabelled LTD^4. Each assay is done in duplicate and results (Ki values) are typically a mean of several such determinations in individual receptor batches.
The % inhibition by a tested antagonist, relative to control binding (vehicle alone), is expressed as a fraction of log[antagonist] concentration (in molar units) and the half-maximal inhibition (IC50) determined by computerized non-linear least-square analysis. The binding constant (Ki) is then calculated from IC50 by the Cheng-Prusoff equation: [formula] where [L] is ^3 H-LTD4 concentraton and Kd is the affinity constant of LTD4 to this receptor, determined separately for each batch. (Biochem. Pharmacol. 22: 3099-3108, 1973).

- pKi: 9.00
SMILES: CCCN1CCC(Cc2ccc3c(c2)c(Cc2ccc(C(=O)NS(=O)(=O)c4ccccc4C)cc2OC)cn3CCC)C1=O (stereo not shown) [Example 1, 3-Methoxy-N-(2-methylphenylsulfonyl)-4-[1-propyl-5-(1-propyl-2-oxopyrrolidin-3-ylmethyl)indol-3-ylmethyl]benzamide]
